Reference: the METLIN SMRT retention time set (Domingo-Almenara et al. 2019)

Assay: gradient 5% acetonitrile 3 min, to 50% in 2 min, to 85% in 15 min, held 3 min, 100 µL/min
Conditions: column: Zorbax Extend-C18 2.1 x 50 mm; eluents: water / acetonitrile, 0.1% formic acid
Summary of the method: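 Standards, all pure, were combined into mixtures of ~100 molecules and run at 100 μL/min on a Zorbax Extend-C18 column (2.1 × 50 mm, 1.8 μm) with water and acetonitrile, each containing 0.1% formic acid. A coupled quadrupole time-of-flight mass spectrometer operated in positive and negative ionization mode. Retention time values come from computationally picked adduct peaks, each inspected manually.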

Structure (SMILES) | RP-LC retention time [s]
COc1ccc(Cn2cc(S(=O)(=O)N3CCCCCC3)ccc2=O)cc1 | 818
O=C(Cn1c(=O)c2cccn2c2ccc(F)cc21)NCCc1cccs1 | 822
CC(C)C(=O)NCc1csc(C2CCN(C(=O)C3(c4ccccc4)CC3)CC2)n1 | 740
COCC(C)(O)CNC(=O)C(=O)NCCc1ccccc1 (stereo not given) | 660
Cc1nc2cc(-c3ccccc3)nn2c(C)c1CCC(=O)N1CCN(c2ccccn2)CC1 | 652
CC(C)CN(CC(C)C)C(=O)C1CCN(S(=O)(=O)c2ccc3c(c2)CCCC(=O)N3)CC1 | 851
O=C(NCc1ccc2c(c1)OCO2)c1ccc2c(cnn2CC(=O)N2CCCCCC2)c1 | 766
Cc1noc([C@@H]2CN(C(=O)c3ccc(Br)o3)C[C@H]2CO)n1 | 657
CCOc1ccc(CNC(=O)c2ccc3c(c2)NC(=O)C2CCCCN32)cc1OC (stereo not given) | 747
Cc1sc(NC(=O)CCC2CCCCC2)nc1-c1ccc2c(c1)NC(=O)CO2 | 1060
COc1ccccc1-c1noc(C2CCCN2C(=O)c2cccc(F)c2)n1 (stereo not given) | 856
Cc1ccc(NC(=O)C2CCN(S(=O)(=O)c3cc(C(=O)N4CCCC4)n(C)c3)CC2)cc1Cl | 875
CCc1cccc(C)c1Nc1c(-c2cc(Br)ccc2O)nc2ncccn12 | 1090
CN(C)CC(O)Cn1c2ccc(Br)cc2c2cc(Br)ccc21 (stereo not given) | 782
CC(C)OCCCNC(=O)c1c2c(cn(-c3ccc(F)cc3)c1=O)C(=O)CC(C)(C)C2 | 885
Cc1cccc(CNC(=O)c2[nH]c3cc(C)sc3c2CN2CCOCC2)c1 | 724
Cc1csc(-c2cc(S(=O)(=O)N3CCC(C)CC3)cn2CC(=O)N2CCCCC2)n1 | 1130
COc1ccc(NC(=O)N2CC=C(c3cn(C(C)C)c4ncccc34)CC2)cc1 | 858
COc1cccc(NC(=O)NCCCN2CCN(c3ccccc3)CC2)c1OC | 582
CN(C)c1cccc(C(=O)N2CCN(S(=O)(=O)C3CC3)CC2)c1 | 630
O=C(CSc1ncccn1)N1CCc2ccccc21 | 720
CCNc1nc(C)cc(N2CCN(S(=O)(=O)c3cc(C)c(C)cc3C)CC2)n1 | 774
Cc1ccccc1-c1noc(-c2cccnc2N2CCN(Cc3ccccc3)CC2)n1 | 803
Cc1ccccc1NC(=O)c1cn2c(n1)CCCC2 | 586
Cc1ccc2cc(CCC(=O)N3CCN(c4ncccn4)CC3)c(=O)[nH]c2c1 | 670
CCOC(=O)c1nc(Nc2ccc(C(=O)OCC(C)C)cc2)c2ccccc2n1 | 1090

Structure (SMILES) | RP-LC retention time [s]
Cc1cc2cc(CN3C(=O)c4ccccc4C3=O)ccc2[nH]1 | 866
Cc1ncc([N+](=O)[O-])n1CC(O)CCl (stereo not given) | 677
COCCOC(=O)C1=C(C)NC2=C(C(=O)C(C(=O)OC)C(C)C2)C1c1ccccc1F (stereo not given) | 806
Cc1cc(OCC(=O)Nc2c(C)cccc2C)nc(N2CCN(c3ccccc3)CC2)n1 | 861
Cc1c(F)cccc1NC(=O)N1C[C@@H](F)C[C@H]1C(=O)N1CCOCC1 | 653
O=C(Nc1ccc2c(c1)OCCO2)N1CCC(n2c(-c3ccco3)nc3cccnc32)C1 (stereo not given) | 705
CC(C)n1c(C2CCN(C(=O)c3cccc(N(C)C)c3)C2)nc2ccncc21 (stereo not given) | 529
CCOc1ccccc1-c1noc(-c2nnn(Cc3nc(-c4ccccc4OC)oc3C)c2C)n1 | 1070
Cc1cc(C(N)=O)c2cc(Cl)ccc2n1 | 592
O=C(NCCc1cccs1)c1cccc(N2CCNC(c3ccccc3)C2)n1 (stereo not given) | 656
CCCNc1cc(N2CCC(CCC(=O)NCC(C)C)CC2)ncn1 | 642
Cc1cc2nc(C(F)(F)F)c(=O)n(C(C)C(=O)NCCCOC(C)C)c2cc1C (stereo not given) | 1140
Cc1nn(-c2ccc(F)cc2)c(C)c1S(=O)(=O)N1CCC(C(=O)N2CCCC2)CC1 | 790
O=C(c1ncccn1)N1C[C@@H](COCC2CC2)[C@H](c2ccncc2)C1 | 654
COc1ccc(C2(C(=O)N3CCC4(CC3)N(C)C(=O)CS4=O)CC2)cc1 (stereo not given) | 636
CCOc1cccc(-c2noc(Cn3c(=O)n(CCc4ccccc4)c(=O)c4sccc43)n2)c1 | 660
COc1ccc(-n2ccnc(NC(=O)Nc3cccc(F)c3)c2=O)cc1OC | 882
CCc1onc(C)c1C1CCCN1C(=O)Nc1ccccc1Cl (stereo not given) | 907
CC(C)c1ccc2c(c1)-c1ccccc1S(=O)(=O)N2CC(=O)NCc1cccnc1 | 711
Cc1ccc(S(=O)(=O)N2CC(F)(F)C[C@H]2CN2CCc3ccccc3C2)cc1 | 766
O=C(c1ccc2c(c1)OCO2)N1C[C@@H](CO)[C@H](c2ccncc2)C1 | 558
Cc1ccc(C(=O)NCc2nc(-c3ccc(-c4csc(C5CC5)n4)cc3)no2)cc1 | 1110
O=C(O)Cn1ncc2ccccc2c1=O | 572
CC(Cc1cccs1)NC(=O)NCc1cccc2ccccc12 (stereo not given) | 881
O=C(CCC1CCCN(S(=O)(=O)c2ccccc2F)C1)NC1CCCCC1 (stereo not given) | 952

Other lines, results leading:

RP-LC retention time [s] | Structure (SMILES)
599 | COc1ccc(NC(=O)CN2CCc3c(c(=O)c4cc(C)ccc4n3C)C2)cc1
767 | Cc1nnc(-c2cccn2CC(=O)NCc2cccc(Br)c2)o1
1130 | COc1ccc(NS(=O)(=O)c2cc(-c3cc(C(F)(F)F)on3)sc2C)c(OC)c1
632 | Cc1cccc(NC(=O)Cn2nc3n(c2=O)CCCC3)c1C
923 | O=C(Cn1c(=O)cc(-c2nc(C3CC3)no2)c2ccccc21)NCc1ccc(F)cc1
676 | O=c1n(Cc2ccc(Cl)cc2)nc2ccc(S(=O)(=O)N3CCOCC3)cn12
672 | O=C(CN1CCC(c2nc(-c3cccs3)no2)CC1)NCc1ccccc1
592 | CCN1CCCn2nc(C3CCN(S(=O)(=O)c4cnc[nH]4)CC3)cc2C1=O
752 | O=C(NC1CCN(c2cc(-c3cccs3)[nH]n2)C1)c1ccc(F)c(F)c1 (stereo not given)
896 | CCc1ccc(C2=C(C)C(N3CCCN(C(=O)c4ccccc4)CC3)=NS2(=O)=O)cc1
856 | CCN1C(=O)c2cccnc2Sc2cc(NC(=O)Cc3ccccc3Cl)ccc21
774 | COc1ccc(-c2nnc(-c3ccccc3)o2)cc1S(=O)(=O)N1CCC(C(=O)O)CC1
1390 | COCCCNC(=O)Cn1c(=O)n(-c2ccc(F)cc2)c2ncccc21
840 | C=CCn1c(C)c(CC(=O)NCC(C)C)c(=O)n2nc(-c3ccc(C)cc3)nc12
872 | COc1cccc(-c2noc(Cn3ccn(-c4c(C)cccc4C)c(=O)c3=O)n2)c1
710 | Cc1ccc(S(=O)(=O)N2C[C@@H](F)C[C@H]2C(=O)N2CCOCC2)cc1F
708 | O=C(O)CCc1conc1-c1ccc(F)cc1
685 | NC(=O)C1CCN(C(=O)CCCn2c(=O)c3cccn3c3ccc(Br)cc32)CC1
1250 | Cc1ccc(-c2noc(Cn3cnc4c(cnn4-c4ccc(Br)cc4)c3=O)n2)cc1
724 | NC(=O)c1ccc2c(c1)CCCN2C(=O)c1cccc(Cl)c1

RP-LC retention time [s] | Structure (SMILES)
700 | COc1ccccc1CCNC(=O)Cc1csc(NC(=O)c2ccco2)n1
904 | CCCn1cc(CCNS(=O)(=O)c2cccc(C(F)(F)F)c2)c2cccnc21
1140 | COc1ccc(NS(=O)(=O)c2c(C)sc(C)c2-c2cc(C(F)(F)F)on2)c(OC)c1
1100 | CSc1ccc(-c2noc(Cc3nnc(-c4cc(F)cc(F)c4)o3)n2)cc1
710 | Oc1cccc(-c2nc3ncccn3c2Nc2ccc(Cl)cc2)c1
557 | CO[C@H]1CN(C(C)C)[C@H]1C1CCN(C(=O)C(C)C)CC1
659 | O=C(Nc1ccon1)c1ccc(-n2cccn2)nn1
816 | CC1CCC2(CC1)NC(=O)N(CC(=O)Nc1cccc(F)c1)C2=O (stereo not given)
883 | Cc1noc(-c2ccc(-n3cnc(C(=O)NC4CCCCC4)c3)nc2)n1
971 | O=C(Nc1ccc(F)cc1F)Nc1nccn(-c2cccc(F)c2)c1=O
737 | COc1cccc(CNC(=O)C2CCCN(c3nn4c(=O)c5c(nc4s3)CCCC5)C2)c1 (stereo not given)
637 | CC(C)CN1CCN(S(=O)(=O)c2ccc(-c3nnc(C4CC4)o3)o2)CC1
806 | O=C(CC1CCCCC1)N1CCC(F)(C(=O)N2CCCC2)CC1
729 | Cc1ccc(CNC(=O)C2CCCN(S(=O)(=O)c3c[nH]c(C(=O)N4CCCC4)c3)C2)o1 (stereo not given)
821 | CCOC(=O)c1nc(NCCc2ccc(C)cc2)c2ccccc2n1
469 | Nc1nc(SCC(=O)NCC2CCCO2)n[nH]1 (stereo not given)
805 | CC(=O)NCc1nc(-c2ccc3oc(-c4ccccc4)nc3c2)no1
1070 | CC1CCN(C(=O)C2c3ccccc3CCN2CC(=O)NCC2CCCCC2)CC1 (stereo not given)
969 | O=c1n(Cc2ccccc2F)nc2c(S(=O)(=O)N3CCN(c4ccc(F)cc4)CC3)cccn12
